Data taken from patent publication US4623656A, “Method for inhibiting monoamine oxidase-A and treating depression by administering 3-N-methyl-thioxanthen-9-one carboxamide 10,10-dioxide” (priority 1984, dated 1986).
Each block holds one compound with its values, some of them ahead of it.

Legend:
MAO = test: Time course of in vivo MAO inhibition after oral dosing (other experiments, tissue not stated); parameters: species or system rat; conditions: oral dose of 50 mg/Kg
Experimental: (§1) To determine MAO inhibition in brains and livers of rats pretreated with reversible inhibitors, it was necessary to use an assay procedure that minimized dilution of the inhibitor. Thus, high concentrations of brain tissue homogenates were incubated for very short incubation times. For brain assays, initial tissue was 3-fold diluted into each assay. Because of the very high MAO activity in liver homogenates, further dilution of tissue was necessary in order to obtain reliable data. In this case, three different homogenate concentrations were assayed, and precent inhibition was extrapolated to zero tissue dilution. Substrate concentrations were not saturating, but were chosen relative to Km values for serotonin and phenethylamine in order to give an estimate of MAO-A and B, respectively.
Brains from pretreated male Sprague-Dawley rats ([…]), were homogenized in a buffer consisting of 0.1M potassium phosphate and 5% sucrose (pH 7.4) at a 1:1 tissue wt/buffer volume ratio, using a motorized Teflon/glass homogenizer. MAO-A and B were determined by incubating 100 μl of tissue homogenate with 50 μl of a double-label substrate mixture to give final concentrations of [^3 H] serotonin, 0.4 mM (5 Ci/mol); and [^14 C] β-phenethylamine, 20 μM (3 Ci/mol). For blank assays 100 μl portions of homogenate were pre-incubated at 37° C. with pargyline (4 mM) before substrate addition. Incubations were at 37° C. for 30 sec. Assay mixtures were then acidified and products extracted as in the above in vitro method (White and Glassman). Liver tissue was homogenized in the above phosphate-sucrose buffer at a 1:5 tissue wt/buffer volume ratio. Portions (5, 10 and 50 μ l) of each homogenate were assayed with 50 μl of the above double-label substrate mixture in a total assay volume of 150 μl 0.067M potassium phosphate, pH 7.4. Blank assays included the same amounts of homogenate pre-incubated with 4 mM pargyline for 15 min at 37° C. After addition of substrates, mixtures were incubated at 37° C. for 20 sec, acidified, and products extracted as above. […]

MAO-A [1] = test: Kinetic mechanism of MAO-A inhibition (single substrate varied); format: biochemical, rat or human
Experimental: For studies of the kinetic mechanism of inhibition, the above method was used, except that a single substrate (serotonin or tyramine) was varied over a 10-fold concentration range that included the Km concentration. MAO activity was determined in the absence and presence of the compound under test at each substrate concentration in duplicate assays.

[2] = system: tetrabenazine-induced sedation; test: Prevention of tetrabenazine-induced sedation; format: in vivo, Charles River CD-1 male mice
Experimental: Charles River CD-1 male mice (18-22 gm) were pretreated orally with various doses of Compound I or the reference standard, phenelzine, 60 min, 3 hr, or 5 hr before injection of tetrabenazine (35 mg/kg i.p.). […] Thirty minutes after injection of tetrabenazine, each mouse was scored on an arbitrary scale from one to four according to Vernier et al., ([…] Syomp. on Psychosomatic Medicine, J. H. Nodin and J. H. Moyer Eds., Lea and Febiger, Philadelphia, 1962, pp 683-90) for both depression of exploratory behaviour and presence or absence of blepharoptosis. Ratings were converted to a percent of rating received by mice receiving […] prior to tetrabenazine administration.

MAO-B (brain) = test: In vivo inhibition of brain MAO-B in orally pretreated rats; parameters: species or system rat; conditions: 12.5-50 mg/kg p.o., 3 hr after oral dosing
Experimental: as §1
(§2) Brains from pretreated male Sprague-Dawley rats (sacrificed 3 hours after oral dosing), were homogenized in a buffer consisting of 0.1M potassium phosphate and 5% sucrose (pH 7.4) at a 1:1 tissue wt/buffer volume ratio, using a motorized Teflon/glass homogenizer. MAO-A and B were determined by incubating 100 μl of tissue homogenate with 50 μl of a double-label substrate mixture to give final concentrations of [^3 H] serotonin, 0.4 mM (5 Ci/mol); and [^14 C] β-phenethylamine, 20 μM (3 Ci/mol). […]

hypertensive activity = test: Hypertensive activity with orally ingested tyramine in test animals; format: in vivo; conditions: oral antidepressant doses prior to orally ingested tyramine
MAO-A [3] = biological target: T1, MAO-A (Homo sapiens, UniProt P21397); test: In vitro MAO-A inhibition, double-label assay, mitochondrial extracts of human brain; format: biochemical
T1 construct: mitochondrial extracts of rat or human brain; from tissue; host or cells: human brain, mitochondrial extract
T1 sequence (P21397 1-527): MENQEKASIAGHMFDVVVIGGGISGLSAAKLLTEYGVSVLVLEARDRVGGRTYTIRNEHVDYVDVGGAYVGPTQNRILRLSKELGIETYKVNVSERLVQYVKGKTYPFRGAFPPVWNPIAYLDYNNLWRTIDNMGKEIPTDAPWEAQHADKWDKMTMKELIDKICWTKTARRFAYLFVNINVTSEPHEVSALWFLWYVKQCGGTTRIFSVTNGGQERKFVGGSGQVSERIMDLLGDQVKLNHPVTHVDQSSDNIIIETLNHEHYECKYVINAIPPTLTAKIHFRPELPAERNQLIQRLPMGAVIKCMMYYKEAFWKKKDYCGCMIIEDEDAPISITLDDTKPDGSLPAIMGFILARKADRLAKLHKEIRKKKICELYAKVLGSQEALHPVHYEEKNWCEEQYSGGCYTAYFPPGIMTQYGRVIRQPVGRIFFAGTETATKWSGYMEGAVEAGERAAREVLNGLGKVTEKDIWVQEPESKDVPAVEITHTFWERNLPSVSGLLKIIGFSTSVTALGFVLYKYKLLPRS
Experimental: (§3) MAO was assayed with [^3 H] serotonin (0.2 mM, 5 Ci/mol) and [^14 C] β-phenethylamine (10 μM, 3 Ci/mol) as substrates in a double-label assay (White and Glassman, J. Neurochem 29:987-97 1977).

MAO-A (brain) = test: In vivo inhibition of brain MAO-A in orally pretreated rats; parameters: species or system rat; conditions: for Percentage Inhibition of MAO-A, Brain: 3 hr after oral dosing; for Inhibition of brain MAO-A by the time of tyramine administration: single oral dose, equipotent doses for tyramine test
Experimental: as §1
(§4) Brains from pretreated male Sprague-Dawley rats (sacrificed 3 hours after oral dosing), were homogenized in a buffer consisting of 0.1M potassium phosphate and 5% sucrose (pH 7.4) at a 1:1 tissue wt/buffer volume ratio, using a motorized Teflon/glass homogenizer. MAO-A and B were determined by incubating 100 μl of tissue homogenate with 50 μl of a double-label substrate mixture to give final concentrations of [^3 H] serotonin, 0.4 mM (5 Ci/mol); and [^14 C] β-phenethylamine, 20 μM (3 Ci/mol). For blank assays 100 μl portions of homogenate were pre-incubated at 37° C. with pargyline (4 mM) before substrate addition. Incubations were at 37° C. for 30 sec. Assay mixtures were then acidified and products extracted as in the above in vitro method (White and Glassman). Liver tissue was homogenized in the above phosphate-sucrose buffer at a 1:5 tissue wt/buffer volume ratio. Portions (5, 10 and 50 μ l) of each homogenate were assayed with 50 μl of the above double-label substrate mixture in a total assay volume of 150 μl 0.067M potassium phosphate, pH 7.4. Blank assays included the same amounts of homogenate pre-incubated with 4 mM pargyline for 15 min at 37° C. After addition of substrates, mixtures were incubated at 37° C. for 20 sec, acidified, and products extracted as above. Percent inhibition for each liver homogenate was obtained by plotting % inhibition vs. reciprocal of tissue concentration and extrapolating back to zero dilution.

MAO-B (liver) = test: In vivo inhibition of liver MAO-B in orally pretreated rats; parameters: species or system rat; conditions: 12.5-50 mg/kg p.o., 3 hr after oral dosing
Experimental: as §1, §2

MAO-A [4] = biological target: T2, MAO-A (Rattus norvegicus, UniProt P21396); test: In vitro MAO-A inhibition, double-label assay, mitochondrial extracts of rat brain; format: biochemical
T2 construct: mitochondrial extracts of rat or human brain; from tissue; host or cells: rat brain, mitochondrial extract
T2 sequence (P21396 1-526): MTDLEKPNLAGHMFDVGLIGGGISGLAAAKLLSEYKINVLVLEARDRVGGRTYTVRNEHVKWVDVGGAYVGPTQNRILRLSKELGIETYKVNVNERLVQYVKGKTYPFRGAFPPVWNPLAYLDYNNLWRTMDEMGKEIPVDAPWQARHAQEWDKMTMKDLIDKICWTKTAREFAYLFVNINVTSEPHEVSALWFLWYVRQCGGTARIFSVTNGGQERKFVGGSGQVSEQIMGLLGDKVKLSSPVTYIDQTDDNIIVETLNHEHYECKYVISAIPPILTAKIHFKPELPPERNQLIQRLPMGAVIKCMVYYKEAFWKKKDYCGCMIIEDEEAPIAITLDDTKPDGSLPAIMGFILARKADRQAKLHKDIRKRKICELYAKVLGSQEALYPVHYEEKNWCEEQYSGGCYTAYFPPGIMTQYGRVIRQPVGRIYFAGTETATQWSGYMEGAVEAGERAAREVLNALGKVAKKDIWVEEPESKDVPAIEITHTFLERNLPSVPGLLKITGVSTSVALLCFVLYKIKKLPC
Experimental: as §3

MAO-A (liver) = test: In vivo inhibition of liver MAO-A in orally pretreated rats; parameters: species or system rat; conditions: for Percentage Inhibition of MAO-A, Liver: 3 hr after oral dosing, extrapolated to zero tissue dilution; for Inhibition of liver MAO-A by the time of tyramine administration: single oral dose, equipotent doses for tyramine test
Experimental: as §1, §4

[5] = read-out: I50, inhibition of MAO-A

Ki (MAO-A [1]; serotonin as substrate, mitochondrial extracts of rat or human brain): 16 nM | Hypertensive activity (in words) (hypertensive activity): No significant hypertensive activity | Inhibition of MAO-A (in words) (MAO-A [3]): potent selective inhibition of MAO-A | IC50 (MAO-A [3]; [5]): 50 nM | Inhibition of MAO-A (in words) (MAO-A [4]): potent selective inhibition of MAO-A | IC50 (MAO-A [4]; [5]): 50 nM
SMILES: CNC(=O)c1ccc2c(c1)S(=O)(=O)c1ccccc1C2=O [Compound I, 3-N-methylcarbamoylthioxanthen-9-one 10,10-dioxide]
Reversibility of the in vivo inhibition (MAO): indicating reversibility of the in vivo inhibition | Time of maximum inhibition (MAO): 3 to 7 h | Inhibition at 24 hours after dosing (MAO; 24 hours after dosing): negligible | Mechanism of inhibition (MAO-A [1]; vs. the substrates, serotonin or tyramine): competitive | ED50 ([2]; Mus musculus, 1.5 h, oral, 90 minutes, tetrabenazine 35 mg/kg i.p.): 49 ± 10 mg/kg | Prevention of tetrabenazine-induced sedation (in words) ([2]; oral, 90 minutes, tetrabenazine 35 mg/kg i.p.): dose-dependent prevention of tetrabenazine-induced sedation | ED50 at 3 hr after treatment (in words) ([2]; oral, 3 hr after treatment, tetrabenazine 35 mg/kg i.p.): essentially the same as those found at 90 min | ED50 at 5 hr after treatment (in words) ([2]; oral, 5 hr after treatment, tetrabenazine 35 mg/kg i.p.): essentially the same as those found at 90 min | Inhibition of MAO-B, brain (MAO-B (brain)): no significant inhibition of MAO-B in either tissue | Percentage Inhibition of MAO-A, Brain (MAO-A (brain); 12.5 mg/kg p.o.): 37 ± 16% | Percentage Inhibition of MAO-A, Brain (MAO-A (brain); 25 mg/kg p.o.): 49 ± 10% | Percentage Inhibition of MAO-A, Brain (MAO-A (brain); 50 mg/kg p.o.): 78 ± 2% | Inhibition of brain MAO-A by the time of tyramine administration (MAO-A (brain)): approximately 80% | Inhibition of MAO-B, liver (MAO-B (liver)): no significant inhibition of MAO-B in either tissue | Percentage Inhibition of MAO-A, Liver (MAO-A (liver); 12.5 mg/kg p.o.): 79 ± 5% | Percentage Inhibition of MAO-A, Liver (MAO-A (liver); 25 mg/kg p.o.): 94 ± 4% | Percentage Inhibition of MAO-A, Liver (MAO-A (liver); 50 mg/kg p.o.): 92 ± 4% | Inhibition of liver MAO-A by the time of tyramine administration (MAO-A (liver)): ≥ 90%

SMILES: NNCCc1ccccc1 [phenelzine, reference compound]
Inhibition of brain MAO-A by the time of tyramine administration (MAO-A (brain)): approximately 80% | Inhibition of liver MAO-A by the time of tyramine administration (MAO-A (liver)): ≥ 90%

SMILES: COc1cc2c(cc1OC)C1CC(=O)C(CC(C)C)CN1CC2 (stereo not drawn) [tetrabenazine, reference compound]
Treated mice remaining motionless with marked blepharoptosis ([2]; tetrabenazine 35 mg/kg i.p. (challenge agent)): 90-100%
